# Values of other authors, collected in US11992546B2, “Process of coloring keratinous material comprising the use of an organosilicon compound, an effect pigment, and a sealing reagent vi” (Henkel AG & Co. KGaA, priority 2019, dated 2024).
# Like-named read-outs stand apart in the source and are kept apart here.
Compound,solubility in water (25° C.),solubility in water (at 25° C.)
"Nc1cc(S(=O)(=O)[O-])cc2cc(S(=O)(=O)[O-])c(N=Nc3ccccc3)c(O)c12.[Na+].[Na+] [Acid Red 33, disodium salt of 5-amino-4-hydroxy-3-(phenylazo)-naphthalene-2,7-disulphonate]",2500 µg/mL,–
"O=C([O-])c1c(Cl)c(Cl)c(Cl)c(Cl)c1-c1c2c(Br)cc(=O)c(Br)c-2oc2c(Br)c(O)cc(Br)c12.O=C([O-])c1c(Cl)c(Cl)c(Cl)c(Cl)c1-c1c2c(Br)cc(=O)c(Br)c-2oc2c(Br)c(O)cc(Br)c12.[Na+].[Na+] [Acid Red 92, disodium salt of 3,4,5,6-tetrachloro-2-(1,4,5,8-tetrabromo-6-hydroxy-3-oxoxanthen-9-yl)benzoic acid]",greater than 10 g/L,–
"O=C([O-])C1=NN(c2ccc(S(=O)(=O)[O-])cc2)C(=O)C1N=Nc1ccc(S(=O)(=O)[O-])cc1.[Na+].[Na+].[Na+] (stereo not shown) [Acid Yellow 23, trisodium salt of 4,5-dihydro-5-oxo-1-(4-sulfophenyl)-4-((4-sulfophenyl)azo)-1H-pyrazole-3-carboxylic acid]",–,highly soluble
"O=S(=O)([O-])c1ccc(N=Nc2c(O)ccc3ccccc23)cc1.[Na+] [Acid Orange 7, sodium salt of 4-[(2-hydroxy-1-naphthyl)azo]benzene sulphonate]",more than 7 g/L,–
